# In patent publication US8871971B2, “Protection of normal cells” (priority 2002, dated 2014):
# How the values were obtained:
# [1] = test system: Sulindac reductase activity in calf liver; test: Sulindac reductase activity in calf liver fractions; assay type: biochemical, bovine; conditions: mitochondria, S-100 and S-100 pellet of liver; preliminary evidence
# Protocol: Mammalian enzymes. […] To prepare mitochondria, the S10 pellets were suspended in 20 ml buffer A. […] The tubes were centrifuged at 24,000×g for 24 min. The pellets were resuspended in buffer A and centrifuged at 20,000×g for 15 min. The pellets (containing mitochondria) were suspended in 2 ml of buffer A. All fractions were stored at -80° C.
# [2] = test system: Membrane Msr (mem-R,S-Msr); test: Extraction reductase assay, sulindac as substrate; assay type: biochemical, E. coli; conditions: for Nmoles formed: 35 μg of membrane fraction
# [3] = test system: Normal Lung cells; test: Viability of normal lung cells exposed to TBHP (MTS assay); assay type: cell-based; conditions: 500 μM for 48 hr, then TBHP 2 hr
# Protocol: Normal lung cells were treated with 500 μM sulindac-(R+S; near 50% each), 500 μM sulindac-R (>99% R; <1% S) or 500 μM sulindac-S (>99% S; <1% R) for 48 hr. The sulindac-R and sulindac-S samples were obtained from a racemic mixture of epimers using a chiral column analogous to the process described above. The cells were washed and then exposed to the indicated concentration of tert-Butyl Hydroperoxide (TBHP) for 2 hr. Cell viability was measured using the standard MTS assay. A background absorbance of 0.12 was subtracted from average of four replicate samples. The data are plotted as a bar graph because the concentrations are not in equal intervals. The error bars are the SEM of four replicate samples. The data are presented on three separate graphs using the untreated samples from that plate.
# [4] = test system: rat hearts; test: Ischemia/reperfusion in Langendorff heart, LDH release; assay type: in vivo, rats; conditions: 0.1 mg in diet for 2 days; ischemia 45 minutes, reperfusion 2 hours
# Protocol: […]. […] The hearts were removed, exposed to ischemia for 45 minutes and then perfused for 2 hours (reperfusion) using a Langendorff procedure. The cellular damage was measured by assaying for the release of lactic dehydrogenase (LDH).
# [5] = test system: Cancer Lung cells; test: Conversion of sulindac epimers to the sulfide in cells; assay type: in vitro ADME; conditions: 200 μM epimer, 4 hours, serum-free medium
# Protocol: (§1) After incubation, the cells are collected, rinsed and lysed with acetonitrile. The cytosolic contents are separated on a C-18 column.
# [6] = test system: Cancer Skin (skin SCC) cells; test: as above; assay type: in vitro ADME; conditions: 200 μM epimer, 4 hours, serum-free medium
# Protocol: as §1
# [7] = test system: HeLa cells; test: as above; assay type: in vitro ADME; conditions: 200 μM epimer, 4 hours, serum-free medium
# Protocol: as §1
# [8] = test system: Normal Cardiomyocyte; test: as above; assay type: in vitro ADME; conditions: 200 μM epimer, 4 hours, serum-free medium
# Protocol: as §1
# [9] = test system: Normal Lung cells; test: as above; assay type: in vitro ADME; conditions: 200 μM epimer, 4 hours, serum-free medium
# Protocol: as §1
# [10] = biological target: T1, MsrA (Escherichia coli, UniProt P0A744); test: Reductase assay with TLC of products; conditions: 100 nmoles substrate, 3 μg MsrA, 15 mM DTT, 2 hours 37° C.
# T1 sequence (P0A744 whole entry): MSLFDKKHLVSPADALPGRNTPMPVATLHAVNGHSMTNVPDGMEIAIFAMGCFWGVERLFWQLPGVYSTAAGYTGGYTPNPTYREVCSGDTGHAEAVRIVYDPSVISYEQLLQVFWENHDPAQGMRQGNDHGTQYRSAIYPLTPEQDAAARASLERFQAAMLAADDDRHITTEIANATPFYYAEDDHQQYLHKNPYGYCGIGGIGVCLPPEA
# Protocol: (§2) Reductase assay and thin layer chromatography (TLC). […] Incubation was carried out for 2 hours at 37° C., at the end of which the duplicate samples were combined and dried in a speed-vacuum unit at room temperature. The residue was suspended in 50 μl of ethanol, which was then loaded onto a silica gel TLC plate. The plate was developed with butanol: acetic acid:water (60:15:25) as the solvent. The compounds were visualized by their yellow color.
# [11] = biological target: T2, MsrB (Escherichia coli, UniProt P0A746); test: Reductase assay with TLC of products; conditions: 100 nmoles substrate, 21 μg MsrB, 15 mM DTT, 2 hours 37° C.
# T2 sequence (P0A746 whole entry): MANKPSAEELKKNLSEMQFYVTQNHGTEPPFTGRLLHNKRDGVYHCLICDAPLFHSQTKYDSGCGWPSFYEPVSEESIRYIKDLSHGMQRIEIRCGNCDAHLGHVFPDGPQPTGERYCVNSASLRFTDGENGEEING
# Protocol: as §2
# [12] = test system: Drosophila; test: Survival of flies exposed to paraquat oxidative stress; assay type: in vivo; conditions: for Flies alive: 2.5 mM paraquat, 2 mM sulindac; for Survival rate: 10 mM paraquat
# Protocol: Paraquat is a cytotoxic compound known to form superoxide radicals intracellularly. Three different concentrations of paraquat (i.e., 2.5 mM, 5 mM and 10 mM) were tested. […] After 3 days at 25° C., flies were transferred to test vials for counting.
# [13] = test system: PC-12 cells; test: Viability of PC-12 cells treated with MPP+ (trypan blue exclusion); assay type: cell-based; conditions: for Dead cells (%) Exp 1 / Dead cells (%) Exp 2: 0.2 mM MPP+ 24 h
# [14] = test system: G93A transgenic mice; test: G93A SOD1 transgenic mouse model of familial ALS; assay type: in vivo
# Protocol: Transgenic mice expressing a mutant form of SOD similar to that found in human ALS patients were used for this study. Transgenic male mice with a G93A human SOD1 (G1H/+) mutation (B6SJL-TgN (SOD1-G93A)1 Gur; Jackson Laboratories, ME) were used to breed with female B6SJL mice (Jackson Laboratories, ME). The F1 generations were genotyped for the G93A mutation with polymerase chain reaction (PCR) using tail DNA, and two specific primers from the SOD1 gene.
# Motor performance was assessed by Rotarod testing for each group and survival time was recorded.
# Motor function testing. Mice were trained for 2-3 days to become acquainted with the Rotarod apparatus (Columbus instruments, Columbus, Ohio). Rotarod performances were assessed in G93A mice starting at 60 days of age. The testing began with placing the mice on a rod that rotates at 12 rpms. The time period that the mice stayed on the rod before falling off was recorded as a measurement of the competence of their motor function. Three trials were performed, and the best result of the three trials was recorded representing the status of the motor performance. Mice were tested twice a week until they could no longer perform the task.
# Survival times. The initial sign of disease in G93A transgenic mice is a resting tremor that progresses to gait impairment, asymmetrical or symmetrical paralysis of the hind limbs, and ultimately complete paralysis at the end stage. Mice were sacrificed when they were unable to roll over within 20 seconds after being pushed on their side. This time point was determined to be the time of survival, at which time the mice were sacrificed.
# Light microscopic immunocytochemistry. Mice were perfused transcardially with cold 0.1M phosphate-buffered saline (PBS) for 1 minute followed by cold 4% paraformaldehyde in PBS for 10 minutes. The spinal cords were removed rapidly, blocked coronally, and post-fixed in 4% paraformaldehyde in PBS for 6 hours. Blocks were cryo-protected in 30% sucrose for 24 hours and were sectioned on a cryostat at a thickness of 35 micrometers. All protocols were conducted within NIH guidelines for animal research and were approved by the Institutional Animal Care and Use Committee (IACUC).
# Serial transverse sections (50 μm thick) were cut on a cryostat and collected for Nissl staining. Every fourth section was analyzed for neuronal volume and number using the optical fractionator and nucleator probes of the Stereo Investigator System (Microbrightfield, Colchester, Vt.). Six tissue sections of the lumbar spinal cord from each mouse were analyzed. All cells were counted from within the ventral horn below a horizontal line across the gray matter through the ventral border of the central canal. Photomicrographs were taken on a Zeiss Axiophot II microscope.
# Statistical analysis. Statistical analysis of survival was performed using Kaplan-Meier test for survival measured in postnatal days, Fisher's Test for mean age of death analysis, and Scheffe test for motor performance.
# [15] = biological target: T1, MsrA; test: Extraction reductase assay, sulindac as substrate; conditions: 250 ng MsrA
# Source text: (§3) Bacterial enzymes. […] The enzyme preparations had specific activities similar those reported earlier.
# [16] = biological target: T2, MsrB; test: Extraction reductase assay, sulindac as substrate; conditions: 10 μg MsrB
# Source text: as §3
# [17] = biological target: fRMsr (Escherichia coli, UniProt P76270); test: Extraction reductase assay, sulindac as substrate; conditions: 290 μg fRMsr
# Sequence of fRMsr (P76270 whole entry): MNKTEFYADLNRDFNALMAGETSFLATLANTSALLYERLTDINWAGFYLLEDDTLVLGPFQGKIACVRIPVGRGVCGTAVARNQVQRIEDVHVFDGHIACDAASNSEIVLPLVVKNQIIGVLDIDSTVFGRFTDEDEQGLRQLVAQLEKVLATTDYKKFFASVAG
# Source text: as §3
# [18] = test system: fSMsr; test: Extraction reductase assay, sulindac as substrate; conditions: 200 μg fSMsr
# Source text: as §3
# [19] = test system: MsrA1; test: Extraction reductase assay, sulindac as substrate; conditions: 40 μg MsrA1
# Source text: as §3
# [20] = biological target: MsrA from E. coli (Escherichia coli, UniProt P0A744); test: Reductase assay (NADPH oxidation): reduction of sulindac to sulindac sulfide by MsrA
# Sequence of MsrA from E. coli (P0A744 whole entry): as the sequence (P0A744 whole entry) above
# Protocol: Reductase assay. […] Incubations were performed at 37° C. for various times.
# At the end of incubation, 500 μl of 0.5 M Bis-Tris-Cl pH 5.5 and 3 ml of ethyl acetate were added. The tubes were mixed (vortexed) for 5 seconds (3 times). After separation, the organic phase was removed and another 3 ml of ethyl acetate were added. After mixing the organic phase was again removed.
# [21] = 0.1 mM sulindac 48 h pretreatment
# [22] = 0.2 mM sulindac 48 h pretreatment
# [23] = 0.5 mM sulindac 48 h pretreatment
# [24] = 0.5 mM sulindac pretreatment, 0.2 mM MPP+
# [25] = Tube 2: no MsrA, sulindac 5 μl (0.2M), thioredoxin 3 μl
# [26] = Tube 3: MsrA 1 μl (100 ng/μl), 20 min
# [27] = Tube 4: MsrA 2 μl (100 ng/μl), 20 min
# [28] = Tube 5: MsrA 4 μl (100 ng/μl), 20 min
# [29] = Tube 7: MsrA 2 μl (100 ng/μl), 10 min
# [30] = Tube 8: MsrA 2 μl (100 ng/μl), 30 min
compound,measurement,setting,value
C[S@@+]([O-])CC[C@H](N)C(=O)O [Met-R—(O)],Effect of added excess Met(O) epimer on sulindac reductase activity,[1],only a slight effect
C[S+]([O-])CC[C@H](N)C(=O)O (stereo partly shown) [Met-S—(O)],Effect of added excess Met(O) epimer on sulindac reductase activity,[1],inhibited the activity in all three fractions
"CC1=C(CC(=O)O)c2cc(F)ccc2/C1=C\c1ccc([S@@+](C)[O-])cc1 [R-epimer, R-sulindac sulfoxide]",Nmoles formed,[2],2.41 nmol
same,Protection against TBHP compared with other forms,[3],protects better as compared to sulindac-(R+S) or Sulindac-S
same,TBHP concentration up to which protection is seen,[3],340 µM
same,Protection of hearts from ischemia/reperfusion damage (LDH release),[4],protects their hearts from oxidative damage
"CC1=C(CC(=O)O)c2cc(F)ccc2/C1=C\c1ccc([S@+](C)[O-])cc1 [S-epimer, S-sulindac sulfoxide]",Amount formed (picomoles),[5],17.7 picomoles
same,Amount formed (picomoles),[6],57 picomoles
same,Amount formed (picomoles),[7],7.9 picomoles
same,Amount formed (picomoles),[8],120.9 picomoles
same,Amount formed (picomoles),[9],35 picomoles
same,TBHP concentration at which error bars begin to overlap,[3],~220 µM
same,TBHP concentration up to which protection is seen,[3],~180 µM
CSCCC(NC(=O)CC1=C(C)/C(=C/c2ccc([S+](C)[O-])cc2)c2ccc(F)cc21)C(=O)O (stereo not shown) [SMO],Substrate for MsrA (reduction products on TLC),[10],substrate for MsrA
same,Substrate for MsrB (reduction products on TLC),[11],substrate for MsrB
CC1=C(CC(=O)O)c2cc(F)ccc2/C1=C\c1ccc([S+](C)[O-])cc1 (stereo not shown) [Sulindac],Nmoles formed,[2],2.75 nmol
same,Units of activity,[2]; 50 μg membrane fraction,5.1 nmoles of SS formed per hour
same,Flies alive,[12]; 3 day,approximately 95%
same,Flies alive,[12]; 6 day,~60%
same,Survival rate,[12]; after 2 days,~85%
same,Survival rate,[12]; after 3 days,~57%
same,Dead cells (%) Exp 1,[13]; [21],67%
same,Dead cells (%) Exp 2,[13]; [21],74%
same,Dead cells (%) Exp 1,[13]; [22],55%
same,Dead cells (%) Exp 2,[13]; [22],39%
same,Dead cells (%) Exp 1,[13]; [23],34%
same,Dead cells (%) Exp 2,[13]; [23],35%
same,Cell death,[13]; [24],approximately 35%
same,Cell survival,[13]; [24],~65%
same,Effect on viability of the cells,[13]; in the absence of MPP+,no effect on the viability of the cells
same,Motor performance (Rotarod performance times),[14]; 300 PPM and 450 PPM groups vs G93A controls,significant improvement in motor performance
same,Mean survival time,[14]; 300 PPM in food from postnatal day 30,135.17 ± 11.4 days
same,Increase in survival over control mice,[14]; 450 PPM in food,7%
same,Average survival,[14]; 450 PPM in food from postnatal day 30,131.17 ± 10.9 days
same,"Scheffe for motor performance, Mean Diff.",[14]; Controls vs Sulindac 300 PPM,−59.443
same,"Scheffe for motor performance, Mean Diff.",[14]; Controls vs Sulindac 450 PPM,−73.119
same,"Scheffe for motor performance, Mean Diff.",[14]; Sulindac 300 PPM vs Sulindac 450 PPM,−13.676
same,Counts of motor neurons in spinal cord sections,[14]; vs G93A controls,significantly higher counts of motor neurons
same,TBHP concentration after which protection declined rapidly,[3],80 to 100 µM
same,Substrate for MsrA (reduction products on TLC),[10],substrate for MsrA
same,Substrate for MsrB (reduction products on TLC),[11],not a substrate for MsrB
same,Units of activity,[15],11.3 nmoles of SS formed per hour
same,Units of activity,[16],0 nmoles of SS formed per hour
same,Units of activity,[17],0 nmoles of SS formed per hour
same,Units of activity,[18],0 nmoles of SS formed per hour
same,Units of activity,[19],<0.9 nmoles of SS formed per hour
same,OD340,[20]; [25],0.660
same,Sulindac sulfide,[20]; [25],0 nmol
same,OD340,[20]; [26],0.622
same,Sulindac sulfide,[20]; [26],5.8 nmol
same,Δ OD340,[20]; [26],0.038
same,OD340,[20]; [27],0.586
same,Sulindac sulfide,[20]; [27],11.2 nmol
same,Δ OD340,[20]; [27],0.074
same,OD340,[20]; [28],0.522
same,Sulindac sulfide,[20]; [28],21.0 nmol
same,Δ OD340,[20]; [28],0.138
same,OD340,"[20]; Tube 6: MsrA 2 μl, no thioredoxin, 20 min",0.684
same,OD340,[20]; [29],0.626
same,Sulindac sulfide,[20]; [29],5.2 nmol
same,Δ OD340,[20]; [29],0.034
same,OD340,[20]; [30],0.531
same,Sulindac sulfide,[20]; [30],19.4 nmol
same,Δ OD340,[20]; [30],0.129
